The record followed here is ChEMBL document CHEMBL1137948, “The design and synthesis of sulfonamides as caspase-1 inhibitors” (Bioorg Med Chem Lett, 2004).

Test [1] has as its target T1, Caspase-1 (Homo sapiens, UniProt P29466).
T1 sequence (P29466 whole entry): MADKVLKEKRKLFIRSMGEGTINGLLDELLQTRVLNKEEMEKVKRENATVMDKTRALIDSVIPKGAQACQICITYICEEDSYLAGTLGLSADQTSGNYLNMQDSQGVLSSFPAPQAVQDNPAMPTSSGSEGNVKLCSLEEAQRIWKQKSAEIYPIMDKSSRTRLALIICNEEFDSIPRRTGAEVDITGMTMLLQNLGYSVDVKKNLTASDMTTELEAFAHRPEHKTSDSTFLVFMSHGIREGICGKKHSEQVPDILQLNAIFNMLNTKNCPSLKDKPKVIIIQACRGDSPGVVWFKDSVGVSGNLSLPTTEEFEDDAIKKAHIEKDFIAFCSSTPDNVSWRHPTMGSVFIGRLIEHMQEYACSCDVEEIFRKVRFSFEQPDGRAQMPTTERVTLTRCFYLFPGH
Nature of the test: (§1) Inhibitory activity against caspase-1.

Test [2] is described as follows: as §1.

By IC50 is commonly meant the point on the concentration scale where inhibition reaches its midpoint. What is called Ki is the dissociation constant of the complex between target and ligand, obtained from inhibition or displacement. Lower therefore signals a stronger hold on the target. In test [1], `CC(=O)N[C@@H](Cc1ccc(O)cc1)C(=O)N[C@H](C(=O)N[C@@H](C)C(=O)NC(CC(=O)O)C(=O)CCCCCc1ccccc1)C(C)C` (some centres undefined) yielded an IC50 of 0.071 µM and a Ki of 0.014 µM.
As to `C[C@H](NC(=O)[C@H](CCC(=O)O)NC(=O)OCc1ccccc1)C(=O)NC(CC(=O)O)C(=O)CNS(=O)(=O)CCc1ccccc1` (some centres undefined), in test [1], the IC50 amounted to 0.0253 µM and the Ki came to 0.0239 µM.
Regarding `O=C(O)CC(NC(=O)OCc1ccccc1)C(=O)CNS(=O)(=O)Cc1ccccc1` (centres undefined), in test [1], the concentration for half-maximal inhibition (IC50) turned out to be 168 µM. Besides, the Ki in test [2] came out at 18 µM.
Turning to `CC(C)[C@H](NC(=O)OCc1ccccc1)C(=O)N[C@@H](C)C(=O)NC(CC(=O)O)C(=O)CNS(=O)(=O)CCc1ccccc1` (some centres undefined), in test [1], it took 0.072 µM to reach half-maximal inhibition (IC50) and the affinity corresponds to a Ki of 0.004 µM.
Taken in the same sequence, the figures for `O=C(O)CC(NC(=O)OCc1ccccc1)C(=O)CCCCCc1ccccc1` (centres undefined) were 1030 µM and 119 µM.
On to `CC(C)[C@H](NC(=O)OCc1ccccc1)C(=O)N[C@@H](C)C(=O)NC(CC(=O)O)C(=O)CCCCCc1ccccc1` (some centres undefined), for which, in test [1], the IC50 was 0.976 µM and the affinity corresponds to a Ki of 0.134 µM.
In the case of `CC(=O)N[C@@H](Cc1ccc(O)cc1)C(=O)N[C@@H](CCC(=O)O)C(=O)N[C@@H](C)C(=O)NC(CC(=O)O)C(=O)CNS(=O)(=O)CCc1ccccc1` (some centres undefined), in test [1], 0.0034 µM corresponded to half-maximal inhibition (IC50) and affinity was put at a Ki of 0.004 µM.
